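Five compound concentrations were applied to cells in 96-well plates for 48 hours; endpoints were derived by simple linear interpolation of the resulting dose-response curve. The concentration for 50% growth inhibition is given as GI50.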 The source made the active and inactive calls. No stated cut-off is given here; in the data, active = GI50 up to about 1.1 µM and inactive = higher. A value given as a limit tells only on which side of the number the result lay.

Results on eleven molecules are retold here after ChEMBL document CHEMBL1201862, “PubChem BioAssay data set” (2004).

Test systems include NCI-H226; DU-145; 786-0; LOX IMVI; COLO 205; MCF7; SK-MEL-28; U-251; UO-31; T47D; SK-MEL-5; SNB-75; SK-MEL-2; HOP-92; CAKI-1; HCT-116; OVCAR-5; SF-295; SNB-19.
What all share (experiment): NCI tumour cell line growth inhibition, 48 h

As for `Oc1c(Br)cc(Br)cc1CN(Cc1cc(Br)cc(Br)c1O)C1CCCCC1`, the GI50 was 59.4 µM (inactive) in the assay on NCI-H226; 38 µM (inactive) in the assay with DU-145; 41.1 µM (inactive) in the assay with 786-0; 31.9 µM (inactive) with LOX IMVI; 14.7 µM (inactive) in the assay with COLO 205; 25.5 µM (inactive) in the assay with MCF7. Further, the GI50 is 48.1 µM (inactive) in the assay on SK-MEL-28; 24.9 µM (inactive) in the assay on U-251; 31.7 µM (inactive) with UO-31; 32.4 µM (inactive) with T47D; 16.9 µM (inactive) in the assay on SK-MEL-5; 24.6 µM (inactive) in the assay with SNB-75. For the same molecule, the GI50 in the assay on SK-MEL-2 was 20.2 µM (inactive); in the assay with HOP-92, 32.5 µM (inactive); in the assay with CAKI-1 it was 34.9 µM (inactive); with HCT-116, 33.4 µM (inactive); in the assay on OVCAR-5, 37.6 µM (inactive); with SF-295 it was 21.2 µM (inactive). The GI50 in the assay on SNB-19 was 33.6 µM (inactive).

`O=C(O)c1cc(-c2ccc(-c3ccccc3)cc2)nc2cc3ccccc3cc12`: the GI50 with NCI-H226 is 35.7 µM (inactive); in the assay on DU-145, 66.8 µM (inactive); in the assay on 786-0, 25.9 µM (inactive); in the assay on LOX IMVI, 66.7 µM (inactive); in the assay on COLO 205, 54.7 µM (inactive); in the assay on MCF7, > 100 µM (inactive). Also, the GI50 is 87.5 µM (inactive) with SK-MEL-28; 20.7 µM (inactive) in the assay on U-251; 61.9 µM (inactive) in the assay with UO-31; 49.5 µM (inactive) with T47D; 26.4 µM (inactive) with SK-MEL-5; 29.2 µM (inactive) in the assay on SNB-75. In addition, the GI50 in the assay on SK-MEL-2 is 82 µM (inactive); with HOP-92 it was 28.2 µM (inactive); in the assay with CAKI-1 it was 42 µM (inactive); in the assay on HCT-116 it was 31.3 µM (inactive); in the assay on OVCAR-5 it was > 100 µM (inactive); in the assay with SF-295, 34.8 µM (inactive). Moreover, the GI50 in the assay on SNB-19 is 35.6 µM (inactive).

Regarding `Cc1cc(C)nc(NS(=O)(=O)c2ccc(NNc3c4ccccc4nc4c(C(=O)Nc5ccc(S(=O)(=O)N=C(N)N)cc5)cccc34)cc2)n1`, the GI50 with NCI-H226 is 49.7 µM (inactive); in the assay on DU-145, 65.8 µM (inactive); in the assay with 786-0, 65.5 µM (inactive); in the assay with LOX IMVI, 33.7 µM (inactive); in the assay on COLO 205, 36.1 µM (inactive); in the assay on MCF7 it was 76 µM (inactive). The GI50 was 17.6 µM (inactive) in the assay with SK-MEL-28; 25.4 µM (inactive) in the assay with U-251; 27.7 µM (inactive) in the assay on UO-31; 25.8 µM (inactive) in the assay on T47D; 53.1 µM (inactive) in the assay with SK-MEL-5; 28.4 µM (inactive) in the assay on SNB-75. The GI50 with SK-MEL-2 was 3.64 µM (inactive); in the assay on HOP-92, 35.6 µM (inactive); with CAKI-1 it was > 100 µM (inactive); in the assay with HCT-116, 48 µM (inactive); in the assay on OVCAR-5, 25.1 µM (inactive); in the assay with SF-295, 77.3 µM (inactive). For the same molecule, the GI50 with SNB-19 was 61.1 µM (inactive).

As to `CCNC(=S)NNC(=O)CSc1nc2ccc(I)cc2c(=O)n1Cc1ccccc1`, the GI50 is 10.5 µM (inactive) in the assay on NCI-H226; > 79.4 µM (inactive) in the assay on DU-145; 29.2 µM (inactive) with 786-0; 34.9 µM (inactive) in the assay on LOX IMVI; 25.7 µM (inactive) with COLO 205; 16.9 µM (inactive) in the assay with MCF7. Further, the GI50 was 63.8 µM (inactive) in the assay with SK-MEL-28; 43.4 µM (inactive) with U-251; 0.0299 µM (active) with UO-31; 5.27 µM (inactive) in the assay with T47D; 8.65 µM (inactive) with SK-MEL-5; > 85.7 µM (inactive) with SNB-75. The GI50 was 29.4 µM (inactive) with SK-MEL-2; 17.3 µM (inactive) in the assay on HOP-92; 0.374 µM (active) in the assay with CAKI-1; 6.5 µM (inactive) in the assay with HCT-116; > 100 µM (inactive) in the assay with OVCAR-5; 25.4 µM (inactive) in the assay with SF-295. In addition, the GI50 in the assay with SNB-19 was > 87.5 µM (inactive).

`CCOC1C=CCCO1` (configuration not stated): the GI50 with NCI-H226, in the assay with DU-145, with 786-0, in the assay with LOX IMVI, in the assay with COLO 205 and in the assay with MCF7 was > 100 µM (inactive) each time. Besides, the GI50 in the assay with SK-MEL-28 was > 100 µM (inactive); in the assay with UO-31 it was 2.99 µM (inactive); with T47D, 0.701 µM (active); with SK-MEL-5, > 100 µM (inactive); in the assay on SNB-75 it was > 100 µM (inactive); with SK-MEL-2, > 100 µM (inactive). Moreover, the GI50 with HOP-92, with CAKI-1, in the assay on HCT-116, in the assay with OVCAR-5, with SF-295 and in the assay with SNB-19 was > 100 µM (inactive) each time.

As for `CCN(CCCN(CC)C(=O)Nc1c(C)cccc1C)C(=O)Nc1c(C)cccc1C`, the GI50 in the assay on NCI-H226, in the assay on DU-145, in the assay on 786-0, with LOX IMVI, in the assay with COLO 205 and in the assay on MCF7 was > 100 µM (inactive) throughout. In addition, the GI50 with SK-MEL-28 is > 100 µM (inactive); with U-251 it was > 100 µM (inactive); in the assay with UO-31, 92.3 µM (inactive); in the assay on T47D, 35.4 µM (inactive); in the assay with SK-MEL-5 it was > 100 µM (inactive); with SNB-75, 40.3 µM (inactive). In addition, the GI50 in the assay on SK-MEL-2, in the assay on HOP-92, in the assay on CAKI-1, with HCT-116, in the assay on OVCAR-5 and in the assay with SF-295 was > 100 µM (inactive) in each case. For the same molecule, the GI50 in the assay on SNB-19 is > 100 µM (inactive).

Turning to `C=C1C(=O)OC2C1CC(OC(C)=O)/C(C)=C/CCC1(C)OC21` (configuration not stated), the GI50 with NCI-H226, in the assay with DU-145, in the assay on 786-0, in the assay with LOX IMVI, with COLO 205 and in the assay on MCF7 was > 100 µM (inactive) throughout. Further, the GI50 with SK-MEL-28, in the assay with U-251, in the assay on UO-31, with T47D, in the assay with SK-MEL-5 and in the assay with SNB-75 was > 100 µM (inactive) in each case. Further, the GI50 in the assay on SK-MEL-2, with HOP-92, in the assay with CAKI-1, in the assay on HCT-116, in the assay on OVCAR-5 and in the assay with SF-295 was > 100 µM (inactive) throughout. Further, in the assay with SNB-19, the GI50 is > 100 µM (inactive).

On to `CCSSCS(C)(=O)=O`, for which the GI50 in the assay with NCI-H226 is 29.8 µM (inactive); in the assay with DU-145, 19.1 µM (inactive); with 786-0 it was 5.82 µM (inactive); in the assay on LOX IMVI it was 34.8 µM (inactive); with COLO 205, 6.4 µM (inactive); with MCF7 it was 22.5 µM (inactive). Besides, the GI50 in the assay on SK-MEL-28 is 58.5 µM (inactive); with U-251, 36.4 µM (inactive); in the assay on UO-31 it was 11 µM (inactive); in the assay with T47D, 35.2 µM (inactive); in the assay with SK-MEL-5, 32.7 µM (inactive); in the assay with SNB-75, 23.3 µM (inactive). Also, the GI50 was 39.1 µM (inactive) with SK-MEL-2; 16.9 µM (inactive) in the assay with HOP-92; 34.8 µM (inactive) with CAKI-1; 23.6 µM (inactive) with HCT-116; 53.1 µM (inactive) in the assay on OVCAR-5; 59.3 µM (inactive) with SF-295. For the same molecule, in the assay with SNB-19, the GI50 is 42.7 µM (inactive).

`COc1cc(Oc2nc3c(N)cc(C(F)(F)F)cc3nc2-c2ccccc2)cc(OC)c1OC`: the GI50 in the assay with NCI-H226 was 12.8 µM (inactive); with DU-145, 8.55 µM (inactive); with 786-0, 3.97 µM (inactive); in the assay on LOX IMVI, 3.48 µM (inactive); in the assay with COLO 205, 3.62 µM (inactive); in the assay with MCF7, 3.17 µM (inactive). The GI50 with SK-MEL-28 was 14.8 µM (inactive); in the assay on U-251, 5.9 µM (inactive); in the assay on UO-31 it was 11.2 µM (inactive); in the assay on T47D, 5.81 µM (inactive); in the assay with SK-MEL-5, 2.77 µM (inactive); in the assay with SNB-75, 1.23 µM (inactive). Further, the GI50 in the assay with SK-MEL-2 is 3.24 µM (inactive); in the assay with HOP-92 it was 14.7 µM (inactive); in the assay with CAKI-1, 3.98 µM (inactive); with HCT-116, 2.34 µM (inactive); in the assay on OVCAR-5, 31.3 µM (inactive); with SF-295, 1.95 µM (inactive). In the assay on SNB-19, the GI50 is 3.17 µM (inactive).

Regarding `COc1ccc(-c2nc(N)c3ncn(C4OC(CO)C(O)C4O)c3n2)cc1` (configuration not stated), the GI50 with NCI-H226, with DU-145, in the assay with 786-0, in the assay with LOX IMVI, in the assay with COLO 205 and in the assay on MCF7 was > 100 µM (inactive) each time. For the same molecule, the GI50 with SK-MEL-28, with U-251, in the assay with T47D, in the assay with SK-MEL-5, in the assay with SNB-75 and in the assay on SK-MEL-2 was > 100 µM (inactive) each time. For the same molecule, the GI50 in the assay with HOP-92, with CAKI-1, in the assay with HCT-116, in the assay on OVCAR-5, with SF-295 and in the assay on SNB-19 was > 100 µM (inactive) each time.

Turning to `O=C1/C(=C/c2ccc(O)cc2)CC/C1=C\c1ccc(O)cc1`, the GI50 in the assay with NCI-H226 is > 100 µM (inactive); in the assay with DU-145, > 100 µM (inactive); in the assay on 786-0 it was > 41 µM (inactive); with LOX IMVI it was > 100 µM (inactive); with COLO 205, > 100 µM (inactive); in the assay with MCF7, > 100 µM (inactive). Moreover, the GI50 in the assay with SK-MEL-28 is > 100 µM (inactive); with U-251, 53.1 µM (inactive); in the assay on UO-31 it was 51.2 µM (inactive); with T47D it was > 95.1 µM (inactive); in the assay on SK-MEL-5, > 100 µM (inactive); with SNB-75, > 100 µM (inactive). Besides, the GI50 in the assay on SK-MEL-2 is > 100 µM (inactive); with HOP-92 it was > 68.9 µM (inactive); with CAKI-1 it was 34.5 µM (inactive); with HCT-116 it was > 100 µM (inactive); with OVCAR-5, > 100 µM (inactive); with SF-295, > 96.4 µM (inactive). In the assay with SNB-19, the GI50 was > 87.1 µM (inactive).
